Source: patent US8283353B2, “Fused ring compound and use thereof” (Takeda Pharmaceutical Company Limited, priority 2009, dated 2012)

What was measured:
human PPARγ = target: T1, human PPARγ (Homo sapiens, UniProt P37231); test: PPARγ agonistic activity: luciferase reporter assay in PPARγ:RXRα:4ERPP/CHO-K1 cells; type: cell-based; conditions: CHO-K1, test compound 10^−6 M; luciferase activity of control compound X (1 μM) = 100%, non-administration group = 0%
T1 construct: expressed in transfected cells
T1 sequence (P37231 1-477 isoform P37231-2): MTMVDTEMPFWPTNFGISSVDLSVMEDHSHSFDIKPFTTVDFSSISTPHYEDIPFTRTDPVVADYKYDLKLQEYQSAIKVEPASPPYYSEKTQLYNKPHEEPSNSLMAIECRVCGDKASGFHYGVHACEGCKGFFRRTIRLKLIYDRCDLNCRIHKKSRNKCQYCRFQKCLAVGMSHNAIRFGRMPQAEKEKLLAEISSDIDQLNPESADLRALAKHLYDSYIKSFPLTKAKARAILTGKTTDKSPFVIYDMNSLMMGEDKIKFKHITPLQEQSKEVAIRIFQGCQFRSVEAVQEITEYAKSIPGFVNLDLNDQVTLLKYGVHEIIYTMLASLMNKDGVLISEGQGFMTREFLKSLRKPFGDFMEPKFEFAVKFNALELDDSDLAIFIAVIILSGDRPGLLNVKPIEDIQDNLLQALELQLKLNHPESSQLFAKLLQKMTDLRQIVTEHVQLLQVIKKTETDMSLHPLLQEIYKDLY
T1 sequence (P19793 1-462 partner): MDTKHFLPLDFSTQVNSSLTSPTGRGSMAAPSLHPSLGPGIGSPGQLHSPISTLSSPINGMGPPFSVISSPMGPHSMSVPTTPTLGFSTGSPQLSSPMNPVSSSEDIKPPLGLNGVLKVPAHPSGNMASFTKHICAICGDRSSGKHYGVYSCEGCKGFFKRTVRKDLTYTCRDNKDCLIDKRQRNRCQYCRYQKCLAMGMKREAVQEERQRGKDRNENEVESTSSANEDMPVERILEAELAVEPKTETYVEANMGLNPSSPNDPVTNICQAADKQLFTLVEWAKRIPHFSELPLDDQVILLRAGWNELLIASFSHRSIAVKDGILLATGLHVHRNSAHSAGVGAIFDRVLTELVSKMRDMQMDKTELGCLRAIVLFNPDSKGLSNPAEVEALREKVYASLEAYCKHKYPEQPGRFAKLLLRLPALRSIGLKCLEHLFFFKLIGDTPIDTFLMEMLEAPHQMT
Excerpt: A CHO-K1 cell cultured in a 150 cm^2 cell culture flask [manufactured by Corning Costar Corporation, USA] comprising Ham's F12 medium [manufactured by INVITROGEN, USA] supplemented with 10% fetal bovine serum [manufactured by INVITROGEN, USA] was taken off by treating with 0.5 g/L trypsin-0.2 g/L EDTA (ethylenediamine tetraacetate) [manufactured by Life Technologies, Inc., USA], and then the cell was washed with PBS (Phosphate-buffered saline) [manufactured by INVITROGEN, USA], centrifuged (1000 rpm, 5 minutes) and suspended in PBS. Subsequently, DNA was introduced into the cell under the conditions shown below using GENE PULSER [manufactured by Bio-Rad Laboratories, USA].
Namely, to a cuvette having a 0.4 cm gap were added 8×10^6 cells and 10 μg of plasmid pVgRXR2-hPPARγ obtained in the above-mentioned (4) and 10 μg of reporter plasmid pGL3-4ERPP-TK neo obtained in the above-mentioned (3), which was subjected to electroporation at the voltage of 0.25 kV under the capacitance of […] Subsequently, the cell was transferred into a F12 medium comprising 10% fetal bovine serum and cultured for 24 hours, and then the cell was taken off again and centrifuged. Then, the pellet was suspended in Ham's F12 medium comprising 10% fetal bovine serum supplemented with 500 μg/ml of Geneticin [manufactured by INVITROGEN, USA] and 250 μg/ml of Zeocin [manufactured by INVITROGEN, USA]. The obtained suspension was diluted to the density of 10^4 cells/ml and inoculated in a 96-well plate [manufactured by Corning Costar Corporation, USA], which was cultured in a CO2 gas incubator at 37° C., whereby obtaining a Geneticin- and Zeocin-resistant transformant.
Subsequently, after the transformed cell line thus obtained was cultured in a 24-well plate [manufactured by Corning Costar Corporation, USA], a cell line in which expression of the luciferase was induced, i.e., PPARγ:RXRα:4ERPP/CHO-K1 cell was selected by the addition of 10 μM pioglitazone hydrochloride.
PPARγ:RXRα:4ERPP/CHO-K1 cells obtained in the above-mentioned (5) were cultured in F12 medium [manufactured by INVITROGEN, USA] containing 10% fetal bovine serum [manufactured by MOREGATE, Australia], seeded in a 96 well half-area white plate [manufactured by Corning Coster Corporation, USA] at 5×10^3 cells/well, and cultured in a CO2 incubator at 37° C. overnight.
Then, the medium was removed from the 96 well half-area white plate, hamF12 medium containing 0.1% fatty acid-free bovine serum albumin (BSA) (45 μl) and a test compound (5 μl) were added, and the mixture was cultured in the CO2 incubator at 37° C. for 1 day. After removing the medium, Picagene 7.5 [manufactured by Dai Nippon Inki, Japan] (20 μl) diluted 2-fold with HBSS (HANKS' BALANCED SALT SOLUTION) [manufactured by BIO […], USA] was added, and the mixture was stirred. Using 1420 ARVO Multilabel Counter [manufactured by PerkinElmer, USA], luciferase activity was measured. The percentage (%) was calculated from the luciferase activity of the test compound when the luciferase activity of the control compound (compound X: 5-[3-(4-{[2-(2-furyl)-5-methyl-1,3-oxazol-4-yl]methoxy}-3-methoxyphenyl)propyl]-1,3-oxazolidine-2,4-dione) (1 μM) was taken as 100% and the luciferase activity of the test compound non-administration group was taken as 0%.

human AT1 receptor = target: T2, human AT1 receptor (Homo sapiens, UniProt P30556); test: AT1 receptor antagonistic activity: [125I]-angiotensin II binding assay on human AT1 receptor-expressing CHO-K1 cellular membrane fraction; conditions: 22.5 pM [125I]-angiotensin II, 1 hr room temperature
T2 construct: expressed in transfected cells; membrane fraction
T2 sequence (P30556 1-359): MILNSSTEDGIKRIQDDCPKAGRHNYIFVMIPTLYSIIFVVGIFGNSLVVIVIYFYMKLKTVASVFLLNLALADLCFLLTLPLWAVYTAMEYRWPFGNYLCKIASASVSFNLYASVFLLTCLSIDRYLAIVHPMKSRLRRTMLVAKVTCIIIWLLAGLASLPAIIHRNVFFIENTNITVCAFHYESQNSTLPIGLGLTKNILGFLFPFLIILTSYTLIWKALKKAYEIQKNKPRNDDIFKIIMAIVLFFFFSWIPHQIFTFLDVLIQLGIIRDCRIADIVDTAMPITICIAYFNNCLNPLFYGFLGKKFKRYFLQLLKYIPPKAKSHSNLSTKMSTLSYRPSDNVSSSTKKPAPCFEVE
Description: CHO-K1 cell (RIKEN, Japan) capable of stable expression of human AT1 receptor was cultured, recovered, suspended in homogenize buffer (10 mM NaHCO3 (pH 7.4), 5 mM EDTA, 1× Complete EDTA free) [manufactured by Roche, Switzerland], and homogenized. The homogenate was centrifuged at low-speed (900×g, 10 min, 4° C.), and the supernatant was recovered and ultracentrifuged (90,000×g, 1 hr, 4° C.). The supernatant was discarded, and the pellets were resuspended in suspension buffer (50 mM Tris (pH 7.4), 1 mM EDTA, 1× Complete EDTA free).
(9 μg) in the presence of AT1 membrane and test compound in 100 μl, (total reaction volume) of reaction buffer (50 mM Tris (pH 7.4), 10 mM MgCl2 supplemented or not supplemented with 0.3 mg/mL fatty acid-free bovine serum albumin [manufactured by Wako Pure Chemical Industries, Ltd., Japan]). The reaction mixture was incubated in 96 well polypropylene plate for 1 hr at room temperature, and the reaction was quenched by rapid filtration (96 well cell harvester) through a GF/C filter treated with wash buffer (50 mM Tris (pH 7.4)). Subsequently, the filter was washed 5 times with 0.3 mL of ice-cooled wash buffer. […] Total binding was measured in the presence of 1% DMSO and nonspecific binding was measured in the presence of […] Candesartan.

Compound	activation at 1 µM (human PPARγ) [%]	IC50 (human AT1 receptor) [nM]
CCCc1c(Cc2ccc(-c3ccccc3-c3noc(=O)[nH]3)cc2F)c(=O)n([C@H]2CC[C@H](OCC(C)(C)O)CC2)c2nc(C)nn12 [Example 360, 6-{[3-fluoro-2′-(5-oxo-4,5-dihydro-1,2,4-oxadiazol-3-yl)biphenyl-4-yl]methyl}-4-[trans-4-(2-hydroxy-2-methylpropoxy)cyclohexyl]-2-methyl-7-propyl[1,2,4]triazolo[1,5-a]pyrimidin-5(4H)-one]	19	1.7
CCCc1c(Cc2ccc(-c3ccccc3-c3noc(=O)[nH]3)cc2)c(=O)n([C@H]2CC[C@H](OCC(O)(CC)CC)CC2)c2ncnn12 [Example 225, 4-[trans-4-(2-ethyl-2-hydroxybutoxy)cyclohexyl]-6-{[2′-(5-oxo-4,5-dihydro-1,2,4-oxadiazol-3-yl)biphenyl-4-yl]methyl}-7-propyl[1,2,4]triazolo[1,5-a]pyrimidin-5(4H)-one]	21	2.3
CCCc1c(Cc2ccc(-c3ccccc3-c3noc(=O)[nH]3)cc2)c(=O)n([C@H]2CC[C@@H](OCCO)CC2)c2ncnn12 [Example 163, 4-[cis-4-(2-hydroxyethoxy)cyclohexyl]-6-{[2′-(5-oxo-4,5-dihydro-1,2,4-oxadiazol-3-yl)biphenyl-4-yl]methyl}-7-propyl[1,2,4]triazolo[1,5-a]pyrimidin-5(4H)-one]	40	1.6
CCCc1c(Cc2ccc(-c3ccccc3-c3noc(=O)[nH]3)cc2)c(=O)n([C@H]2CC[C@H](OCC(C)(O)CC)CC2)c2ncnn12 (stereo partly drawn) [Example 345, 4-[trans-4-(2-hydroxy-2-methylbutoxy)cyclohexyl]-6-{[2′-(5-oxo-4,5-dihydro-1,2,4-oxadiazol-3-yl)biphenyl-4-yl]methyl}-7-propyl[1,2,4]triazolo[1,5-a]pyrimidin-5(4H)-one]	18	2.1
CCCc1c(Cc2ccc(-c3ccccc3-c3noc(=O)[nH]3)cc2)c(=O)n([C@H]2CC[C@@H](Oc3ccc(C(C)=O)cc3)CC2)c2ncnn12 [Example 277, 4-[cis-4-(4-acetylphenoxy)cyclohexyl]-6-{[2′-(5-oxo-4,5-dihydro-1,2,4-oxadiazol-3-yl)biphenyl-4-yl]methyl}-7-propyl[1,2,4]triazolo[1,5-a]pyrimidin-5(4H)-one]	20	2.2
CCCc1c(Cc2ccc(-c3ccccc3-c3noc(=O)[nH]3)cc2F)c(=O)n([C@H]2CC[C@](C)(OCC(C)(C)O)CC2)c2nc(C)nn12 [Example 368, 6-{[3-fluoro-2′-(5-oxo-4,5-dihydro-1,2,4-oxadiazol-3-yl)biphenyl-4-yl]methyl}-4-[trans-4-(2-hydroxy-2-methylpropoxy)-4-methylcyclohexyl]-2-methyl-7-propyl[1,2,4]triazolo[1,5-a]pyrimidin-5(4H)-one]	19	2.2

Now from value to compound:

activation at 1 µM (human PPARγ) [%]	IC50 (human AT1 receptor) [nM]	Compound
18	1.3	CCCc1c(Cc2ccc(-c3ccccc3-c3noc(=O)[nH]3)cc2F)c(=O)n(C2CCOCC2)c2ncnn12 [Example 117, 6-{[3-fluoro-2′-(5-oxo-4,5-dihydro-1,2,4-oxadiazol-3-yl)biphenyl-4-yl]methyl}-7-propyl-4-(tetrahydro-2H-pyran-4-yl)[1,2,4]triazolo[1,5-a]pyrimidin-5(4H)-one]
42	2.2	CCCc1c(Cc2ccc(-c3ccccc3-c3noc(=O)[nH]3)cc2)c(=O)n([C@H]2CC[C@@H](Oc3ccc(O)cc3)CC2)c2ncnn12 [Example 274, 4-[cis-4-(4-hydroxyphenoxy)cyclohexyl]-6-{[2′-(5-oxo-4,5-dihydro-1,2,4-oxadiazol-3-yl)biphenyl-4-yl]methyl}-7-propyl[1,2,4]triazolo[1,5-a]pyrimidin-5(4H)-one]
34	2.1	CCCc1c(Cc2ccc(-c3ccccc3-c3noc(=O)[nH]3)cc2F)c(=O)n(-c2ccc(OC(C)C)cc2)c2ncnn12 [Example 43, 6-{[3-fluoro-2′-(5-oxo-4,5-dihydro-1,2,4-oxadiazol-3-yl)biphenyl-4-yl]methyl}-4-[4-(1-methylethoxy)phenyl]-7-propyl[1,2,4]triazolo[1,5-a]pyrimidin-5(4H)-one]
17	2.1	CCCc1c(Cc2ccc(-c3ccccc3-c3noc(=O)[nH]3)cc2)c(=O)n(CC(C)(C)C)c2ncnn12 [Example 9, 4-(2,2-dimethylpropyl)-6-{[2′-(5-oxo-4,5-dihydro-1,2,4-oxadiazol-3-yl)biphenyl-4-yl]methyl}-7-propyl[1,2,4]triazolo[1,5-a]pyrimidin-5(4H)-one]
